Values after ≈ are worked out from the molar mass of the structure shown.
What was measured:
LRP1 mRNA = LRP1 mRNA analysis in HTB94 cells (quantitative PCR); format: cell-based; settings: 18 hours
Experimental: (§1) HTB94 chondrosarcoma cells or primary human chondrocytes (1 × 10^6 cells) were treated in triplicate with 0–250 µg/ml suramin in serum-free DMEM for 18–48 hours. Total RNA was isolated from cells using an RNeasy mini kit (Qiagen, Crawley, UK) and cDNA was synthesized (reverse transcriptase kit; Applied Biosystems, Foster City, CA). Levels of TIMP-1, TIMP-2, TIMP-3, LRP1, and RPLP0 internal reference mRNA were quantified by real-time polymerase […] chain reaction on a Corbett Rotor-Gene 6000 (Corbett Life Science, Mortlake, NSW, Australia) using TaqMan Fast Universal PCR Master Mix (Applied Biosystems) and TaqMan probes (Applied Biosystems) Hs01092512_g1 for TIMP-1, Hs00234278_m1 for TIMP-2, Hs00165949_m1 for TIMP-3, Hs00233856_m1 for LRP1, and Hs99999902_m1 for RPLP0. The ΔΔ threshold cycle values (mean ± S.D., n = 3 technical replicates) are shown relative to control untreated HTB94 cells (defined as 1).

[1] = test system: primary chondrocytes isolated from human OA cartilage; test: Accumulation of endogenous TIMP-3 in medium of human OA chondrocytes; format: cell-based; settings: suramin 0–250 µg/ml, 48 hours
Experimental: (§2) Cells (HTB94 chondrosarcoma cells, primary porcine chondrocytes, or human osteoarthritic chondrocytes) were plated overnight (6 × 10^5 cells per well of a 12-well plate) in DMEM containing 10% FCS and washed three times in serum-free DMEM. […] Media were harvested, precipitated with trichloroacetic acid, and analyzed by immunoblotting using a rabbit anti–TIMP-3 polyclonal antibody (AB6000; Millipore, Hertfordshire, UK) and an alkaline phosphatase–conjugated anti-rabbit secondary antibody (Promega). TIMP-3 in the medium (mean ± S.D., n = 3) was calculated relative to the pixel volume of untreated cells (defined as 1).

LRP1 ectodomain = test: Shedding of LRP1 ectodomain into medium of HTB94 cells (immunoblot); format: cell-based; settings: suramin 50–250 µg/ml, 30 hours
[2] = test system: HTB94 chondrosarcoma cells; test: Accumulation of endogenous TIMP-3 in medium of HTB94 cells; format: cell-based; settings: suramin 50–200 µg/ml, 30 hours
Experimental: (§3) Cells (HTB94 chondrosarcoma cells, primary porcine chondrocytes, or human osteoarthritic chondrocytes) were plated overnight (6 × 10^5 cells per well of a 12-well plate) in DMEM containing 10% FCS and washed three times in serum-free DMEM.
Media were harvested, precipitated with trichloroacetic acid, and analyzed by immunoblotting using a rabbit anti–TIMP-3 polyclonal antibody (AB6000; Millipore, Hertfordshire, UK) and an alkaline phosphatase–conjugated anti-rabbit secondary antibody (Promega). […]

[3] = test system: primary chondrocytes isolated from normal porcine cartilage; test: Accumulation of endogenous TIMP-3 in medium of porcine chondrocytes; format: cell-based; settings: suramin 0–250 µg/ml, 48 hours
Experimental: as §2

MMP-9 = test system: MMP-9; parameters: method as in Taniguti et al., 2012; settings: ref Taniguti et al., 2012; cited from earlier work
[4] = test system: HTB94 chondrosarcoma cells; test: Cell viability assay (MTS), HTB94 cells; format: cell-based; settings: suramin 0–250 µg/ml, 72 hours
Experimental: HTB94 chondrosarcoma cells or human OA chondrocytes (10^3 cells per well in 96-well plates) were plated overnight in DMEM with 10% FCS. Cells were washed in serum-free cartilage medium and treated for 48–72 hours with suramin (0–250 µg/ml) or sodium nitroprusside (10 mM) as a control to induce cell death. Cell viability was then assessed using the 3-(4,5-dimethylthiazol-2-yl)-5-(3-carboxymethoxyphenyl)-2-(4-sulfophenyl)-2H-tetrazolium CellTiter Cell Proliferation Assay (Promega) according to the manufacturer’s instructions (mean ± S.D., n = 3).

TIMP-3 mRNA = TIMP-3 mRNA analysis in human OA chondrocytes (quantitative PCR); format: cell-based; settings: suramin 0–250 µg/ml, 48 hours
Experimental: as §1

[5] = test system: HTB94 chondrosarcoma cells; format: cell-based; settings: after 8 hours; TIMP-3 1 nM preincubated with suramin 200 µg/ml; HTB94 cells
Experimental: as §3
To evaluate endocytosis of exogenously added TIMP-3, cells were incubated with recombinant TIMP-3 (1 nM in 1.5 ml DMEM with 0.1% FCS) for 0–24 hours. Conditioned media were concentrated by precipitation with trichloroacetic acid [5% (v/v), 4°C, 18 hours]. After centrifugation (13,000 rpm, 4°C, 10 minutes), protein-containing pellets were resuspended in SDS sample buffer (30 µl), electrophoresed (7 µl) on a 10% polyacrylamide gel, and immunoblotted onto polyvinylidene fluoride. After blocking in 5% (m/v) BSA in Tris-buffered saline, TIMP-3 levels were analyzed using an M2 anti-FLAG antibody (Sigma-Aldrich), an alkaline phosphatase–conjugated anti-mouse secondary antibody (Promega, Southampton, UK), and a Western Blue stabilized substrate for alkaline phosphatase (Promega). Immunoblots were analyzed by densitometry using Phoretix 1D densitometry software (TotalLab, Newcastle-upon-Tyne, UK), and TIMP-3 remaining in the medium (mean ± S.D., n = 3) was calculated relative to pixel volume at a t of 0 hours (defined as 100%).

[6] = test system: human OA cartilage explants; test: Aggrecan release from human OA cartilage explants (DMMB assay); format: cell-based; settings: 48 hours
Experimental: The effects of suramin on cartilage degradation were assessed using porcine or human cartilage explants. Explants were rested for 48 hours after dissection and were washed with serum-free DMEM. Explants were then treated with retinoic acid (1 µM; Sigma-Aldrich), interleukin (IL)-1 (10 ng/ml; Peprotech, London, UK), and/or suramin (0–250 µg/ml) in serum-free DMEM for 48 hours.
Aggrecan degradation was analyzed by quantifying aggrecan fragments released into the conditioned media using the dimethylmethylene blue (DMMB) dye-binding assay ([Farndale et al., 1986]) (mean ± S.D., n = 3) and by immunoblotting with neo-epitope antibodies that recognize ADAMTS-cleaved but not intact aggrecan. For immunoblotting, conditioned media were deglycosylated by adding an equal volume of 200 mM sodium acetate and 50 mM Tris/HCl, pH 6.8, containing chondroitinase and β-endoglycosidase (0.05 U each; 18 hours, 37°C; Sigma-Aldrich). Aggrecan fragments were precipitated by adding five volumes of ice-cold acetone (18 hours, −20°C). After centrifugation (13,000 rpm, 10 minutes, 4°C), pellets were resuspended in SDS sample buffer, separated by electrophoresis on a 6% (v/v) polyacrylamide gel, and blotted onto polyvinylidene fluoride. […]

SMILES: Cc1ccc(C(=O)Nc2ccc(S(=O)(=O)O)c3cc(S(=O)(=O)O)cc(S(=O)(=O)O)c23)cc1NC(=O)c1cccc(NC(=O)Nc2cccc(C(=O)Nc3cc(C(=O)Nc4ccc(S(=O)(=O)O)c5cc(S(=O)(=O)O)cc(S(=O)(=O)O)c45)ccc3C)c2)c1 [suramin]
- increase in expression of LRP1 mRNA (LRP1 mRNA; suramin 250 µg/ml): 3 fold
- expression of LRP1 mRNA (LRP1 mRNA; suramin up to 200 µg/ml): unaffected
- endocytosis of endogenously expressed TIMP-3 [1]: inhibited endocytosis
- shedding of LRP1 ectodomain into the medium (LRP1 ectodomain): not affected
- endogenous TIMP-3 in the medium [2]: accumulated
- endocytosis of endogenously expressed TIMP-3 [3]: inhibited endocytosis
- MMP-9 activity (MMP-9): inhibit MMP-9 activity
- cell viability (MTS) [4]: no effect
- TIMP-3 mRNA levels (TIMP-3 mRNA): without any significant change
- TIMP-3 remaining in the medium [5]: more than 85%
- aggrecan degradation ([6]; human OA cartilage explants stimulated with IL-1 10 ng/ml or retinoic acid 1 µM): dose-dependently inhibited
- IC50 ([6]; human OA cartilage explants, retinoic acid 1 µM, read-out: IC50 for inhibition of aggrecan degradation): 62 ± 16 µg/mL (≈ 47.8 µM)

— publication PMC5588548, “Suramin Inhibits Osteoarthritic Cartilage Degradation by Increasing Extracellular Levels of Chondroprotective Tissue Inhibitor of Metalloproteinases 3” (Molecular Pharmacology, 2017)
